Laboratory results as given in patent publication US6838477B2, “Lactacystin analogs” (President and Fellows of Harvard College, priority 1995, dated 2005).
Entries after “also recorded” stand apart in the source; their conditions may differ. Peptide text beside a SMILES is read from it. * marks the point of attachment. Cbz = O=C(OCc1ccccc1)*

Columns and labels:
p105 to p50 processing = experiment: Proteasome dependent p105 to p50 processing in transfected COS cells (pulse-chase); format: cell-based, African green monkey; settings: 50 μM, 1 h pretreatment, 2 hour chase
Protocol: COS cells were plated onto 100 mm dishes, then, with DEAE-Destran, either mock transfected, or transfected with 3 μg of pcDNA plasmid containing the human p105 cDNA. Forty-eight hrs after transfection, cells were pretreated for 1 hour with 0.5% DMSO, 50 μM calpain inhibitor II, 50 μM MG132, or 10 μM β-lactone. Cells were then pulse labelled with 250 uCi/plate of ^35S-methionine/cysteine for 15 minutes, and either harvested immediately or followed by a 2 hour chase with excess unlabelled methionine and cysteine. Cells were then lysed with SDS/Tris, and proteins were immunoprecipitated with anti-p50 antibodies (recognize the N-terminal half of the p105 protein). These proteins were then separated on a 10% SDS-polyacrylamide gel, which was then fixed, dried, and exposed to autoradiographic film.

IκB-α = experiment: TNF-α dependent degradation of IκB-α in Hela cells (immunoblot); format: cell-based, human; settings: 40 μM, 1 h pretreatment, 1,000 U/ml TNF-α
Protocol: Hela cells were plated onto 6-well plates in DME plus 10% fetal calf serum (3 mls/well). Cells were then pretreated with 0.125% DMSO 40 μM […] (carbobenzoxyl-leucinyl-leucinyl-leucinal-H)(40 μM, lanes 103), or 5 μM β-lactone for one hour, followed by treatment with 1,000 U/ml TNF-α or phosphate buffered saline (PBS). Cells were harvested after 0 min, 20 min, or 40 min of further incubation at 37° C. Cells were then lysed in buffer containing NP-40 and protease inhibitors, and the proteins separated on a 10% SDS-polyacrylamide gel. The proteins were then transferred to nitrocellulose and probed with antibodies against the C-terminal 20 amino acids of human IκB-α.

PC12 cells = settings: Tsubuki et al. 1993; cited from earlier work
20S proteasome = target: T1, 20S proteasome (Bos taurus, UniProt Q2TBP0+Q32KL2); experiment: Labeling of 20S proteasome subunits by tritiated compound, reverse-phase HPLC separation; format: binding, bovine
T1 construct: from tissue; host or cells: bovine brain
Protocol: This peak was isolated and treated with 10 μM [^3H]lactacystin or 10 μM [^3H]β-lactone for 24 h at 25° C. Trifluoroacetic acid (TFA) was added to 0.1%, and the sample was allowed to stand at room temperature for 20 min. Reverse-phase HPLC was then carried out at room temperature using a Vydac C4 column (300 Å/4.6×150 mm) with 20-40% acetonitrile/0.1% TFA over 10 min and then 40-55% acetonitrile/0.1% TFA over 30 min (flow rate=0.8 ml/min). An IN/US β-RAM in-line scintillation detector was used to monitor radioactivity.

[1] = target: T2, 20S proteasome trypsin-like activity (Bos taurus, UniProt Q2TBP0); experiment: Kinetics of inhibition of 20S proteasome trypsin-like activity (Cbz-GGR-βNA); format: biochemical, bovine
T2 construct: from tissue; host or cells: bovine brain
Protocol: (§1) Experiments involving the proteasome were performed as follows: 20S proteasome (˜5 ng/μl) in 10 mM Tris-HCl, pH 7.5, 1 mM EDTA was incubated at 25° C. in the presence of lactacystin or lactacystin analogs in DMSO or MeOH [not exceeding 5% (v/v)]. Aliquots for fluorescence assay were removed at various times following addition of compound and diluted in 10 mM Tris-HCl, pH 7.5, 1 mM EDTA containing fluorogenic peptide substrates (100 μM final). Suc-LLVY-AMC, Cbz-GGR-βNA and […] (AMC=7-amido-4-methylcoumarin; βNA=β-naphthylamide) were used to assay for the chymotrypsin-like, trypsin-like and peptidylglutamyl-peptide hydrolyzing activities, respectively.
(§2) Fluorescent emission at 460 nm with excitation at 380 nm was measured for AMC-containing substrates, and emission at 410 nm with excitation at 335 nm was measured for βNA-containing substrates. The fluorescence assays were conducted at 25° C., each experiment was performed at least three times, and values represent mean±standard deviation.
(§3) The reversibility of the inhibitory effects was assessed by measuring residual peptidase activity after removal of excess inhibitor by extensive serial dilution/ultrafiltration.

Cathepsin B = Cathepsin B (Homo sapiens, UniProt P07858); experiment: Selectivity of protease inhibition: cathepsin B; format: biochemical
Calpain I = target: T3, Calpain I (Homo sapiens, UniProt P07384); experiment: Selectivity of protease inhibition: calpain I; format: biochemical
T3 sequence (P07384 1-714): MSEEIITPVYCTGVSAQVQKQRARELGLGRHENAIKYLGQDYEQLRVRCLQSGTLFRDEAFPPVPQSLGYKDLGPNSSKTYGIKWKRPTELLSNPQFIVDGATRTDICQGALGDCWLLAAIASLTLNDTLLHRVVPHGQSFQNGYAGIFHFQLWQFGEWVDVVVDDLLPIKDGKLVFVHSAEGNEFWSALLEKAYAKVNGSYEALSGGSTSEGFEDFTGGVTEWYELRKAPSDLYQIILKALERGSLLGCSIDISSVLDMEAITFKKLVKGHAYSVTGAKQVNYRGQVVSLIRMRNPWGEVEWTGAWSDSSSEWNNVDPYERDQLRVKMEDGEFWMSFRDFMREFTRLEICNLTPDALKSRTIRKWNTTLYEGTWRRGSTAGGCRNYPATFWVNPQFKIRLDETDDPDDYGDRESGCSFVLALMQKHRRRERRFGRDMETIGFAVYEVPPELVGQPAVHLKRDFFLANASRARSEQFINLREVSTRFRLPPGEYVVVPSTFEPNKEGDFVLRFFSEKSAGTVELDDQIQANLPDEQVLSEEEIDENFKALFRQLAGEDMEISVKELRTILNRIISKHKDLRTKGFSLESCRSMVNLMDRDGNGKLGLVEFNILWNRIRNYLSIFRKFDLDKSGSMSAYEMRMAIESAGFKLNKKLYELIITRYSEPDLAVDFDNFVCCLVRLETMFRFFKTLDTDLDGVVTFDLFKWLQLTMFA
T3 sequence (P04632 1-268 partner): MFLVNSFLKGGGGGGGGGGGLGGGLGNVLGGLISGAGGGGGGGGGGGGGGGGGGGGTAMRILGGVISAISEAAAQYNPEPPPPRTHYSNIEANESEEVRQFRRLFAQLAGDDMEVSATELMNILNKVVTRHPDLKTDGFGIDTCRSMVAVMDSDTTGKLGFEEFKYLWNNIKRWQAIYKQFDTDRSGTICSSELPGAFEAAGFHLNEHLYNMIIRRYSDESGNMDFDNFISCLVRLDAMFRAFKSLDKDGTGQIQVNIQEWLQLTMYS

α-Chymotrypsin = α-Chymotrypsin (Bos taurus, UniProt P00766, DEL14-15/DEL147-148); experiment: Selectivity of protease inhibition: α-chymotrypsin; format: biochemical
Papain = target: T4, Papain (Carica papaya, UniProt P00784); experiment: Selectivity of protease inhibition: papain; format: biochemical
T4 sequence (P00784 134-345): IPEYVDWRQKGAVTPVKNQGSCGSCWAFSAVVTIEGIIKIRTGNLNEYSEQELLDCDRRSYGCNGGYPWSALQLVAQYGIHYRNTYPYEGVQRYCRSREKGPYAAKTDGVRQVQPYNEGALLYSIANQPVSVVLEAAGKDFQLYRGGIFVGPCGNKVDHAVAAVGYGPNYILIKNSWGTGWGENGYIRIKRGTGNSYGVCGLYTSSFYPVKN

[2] = target: 20S proteasome peptidylglutamyl-peptide hydrolyzing activity (Bos taurus, UniProt Q3MHN0)
Protocol: as §1, §2, §3

Trypsin = target: T5, Trypsin (Bos taurus, UniProt P00760); experiment: Selectivity of protease inhibition: trypsin; format: biochemical
T5 construct: gene PRSS1
T5 sequence (P00760 24-246): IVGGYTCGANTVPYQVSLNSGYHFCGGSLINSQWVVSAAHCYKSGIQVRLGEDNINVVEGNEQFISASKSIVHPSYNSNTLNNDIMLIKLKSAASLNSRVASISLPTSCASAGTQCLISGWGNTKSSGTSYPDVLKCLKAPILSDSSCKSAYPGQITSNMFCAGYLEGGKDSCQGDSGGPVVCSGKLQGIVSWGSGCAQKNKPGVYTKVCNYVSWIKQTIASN

[3] = target: T6, 20S proteasome chymotrypsin-like activity (Bos taurus, UniProt Q32KL2); experiment: Kinetics of inhibition of 20S proteasome chymotrypsin-like activity (Suc-LLVY-AMC); format: biochemical, bovine; settings: for κassoc = κobs/[I], Chymotrypsin-like activity (Suc-LLVY-AMC): 25° C.
T6 construct: from tissue; host or cells: bovine brain
Protocol: as §1, §2, §3

Calpain II = target: T7, Calpain II (Homo sapiens, UniProt P17655); experiment: Selectivity of protease inhibition: calpain II; format: biochemical
T7 sequence (P17655 1-700): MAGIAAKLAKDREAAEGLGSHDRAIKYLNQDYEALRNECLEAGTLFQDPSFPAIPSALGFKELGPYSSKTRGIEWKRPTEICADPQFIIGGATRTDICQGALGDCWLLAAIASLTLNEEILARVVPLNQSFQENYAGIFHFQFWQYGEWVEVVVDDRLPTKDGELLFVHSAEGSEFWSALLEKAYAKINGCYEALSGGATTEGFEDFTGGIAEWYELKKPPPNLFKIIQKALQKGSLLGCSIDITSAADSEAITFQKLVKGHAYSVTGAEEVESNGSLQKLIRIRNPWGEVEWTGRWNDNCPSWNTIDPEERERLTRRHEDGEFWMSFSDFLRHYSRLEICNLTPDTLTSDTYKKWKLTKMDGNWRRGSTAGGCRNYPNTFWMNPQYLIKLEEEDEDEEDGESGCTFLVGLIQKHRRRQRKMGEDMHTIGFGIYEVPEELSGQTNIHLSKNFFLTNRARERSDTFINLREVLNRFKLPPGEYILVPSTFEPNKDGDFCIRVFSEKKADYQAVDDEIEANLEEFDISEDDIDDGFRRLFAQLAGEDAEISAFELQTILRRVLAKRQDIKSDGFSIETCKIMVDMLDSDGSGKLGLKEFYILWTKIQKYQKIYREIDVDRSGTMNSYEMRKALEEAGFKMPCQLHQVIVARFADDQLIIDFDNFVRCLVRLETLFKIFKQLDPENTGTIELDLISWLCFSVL
T7 sequence (P04632 1-268 partner): T3 sequence (P04632 1-268 partner)

[4] = relative to kassoc for chymotrypsin-like activity
[5] = residual activity after removal of excess inhibitor by serial dilution/ultrafiltration

CC(C)C[C@@H](C=O)NC(=O)[C@H](CC(C)C)NC(=O)[C@H](CC(C)C)NC(=O)OCc1ccccc1 [MG132, carbobenzoxyl-leucinyl-leucinyl-leucinal-H] (Cbz-Leu-Leu-Leu-aldehyde)
processing of p105 to p50 (appearance of p50) (p105 to p50 processing): completely blocks the appearance of p50 | degradation of IκB after TNF induction (IκB-α): blocks the degradation | phosphorylated form of IκB (IκB-α): stabilizes the phosphorylated form | optimal concentration for inducing neurite outgrowth (PC12 cells): 30 nM

CC(=O)N[C@@H](CSC(=O)[C@]1([C@@H](O)C(C)C)NC(=O)[C@H](C)[C@@H]1O)C(=O)O [[^3H]lactacystin]
association of radioactivity with HPLC-separated proteasome subunit peaks (20S proteasome; 10 μM, 24 h at 25° C., first peak ~32 kDa (α chain), second peak ~24 kDa (X/MB1)): exclusively with the first two peaks | labeling of the first peak (~32 kDa protein) (20S proteasome; 24 hour reaction): significant labeling

CSCC[C@@H](C=O)NC(=O)[C@H](CC(C)C)NC(=O)[C@H](CC(C)C)NC(C)=O [calpain inhibitor II] (Ac-Leu-Leu-Met-aldehyde)
processing of p105 to p50 (appearance of p50) (p105 to p50 processing): no effect

CC(=O)N[C@@H](CSC(=O)[C@]1([C@@H](O)C(C)C)NC(=O)[C@H](C)[C@@H]1O)C(=O)O [Lactacystin, lactacystin]
κassoc = κobs/[I], Trypsin-like activity (Cbz-GGR-βNA) ([1]; compound 10 μM, 25° C.): 10.1 ± 1.8 s^−1M^−1 | trypsin-like activity inhibited more slowly than chymotrypsin-like activity [1, 4]: 20 fold | reversibility of inhibition of trypsin-like activity [1, 5]: irreversibly; also recorded: still completely inhibited | Effect of lactacystin (100 μM) on Cathepsin B (Cathepsin B; 100 μM, Cbz-RR-AMC, 25° C.): No inhibition | inhibition of cathepsin activity (Cathepsin B; concentration not given): do not inhibit | Effect of lactacystin (100 μM) on Calpain I (Calpain I; 100 μM, Suc-LLVY-AMC, 25° C.): No inhibition | inhibition of calpain I activity (Calpain I; concentration not given): do not inhibit | Effect of lactacystin (100 μM) on α-Chymotrypsin (α-Chymotrypsin; 100 μM, Suc-LLVY-AMC, 25° C.): No inhibition | inhibition of α-chymotrypsin activity (α-Chymotrypsin; concentration not given): do not inhibit | Effect of lactacystin (100 μM) on Papain (Papain; 100 μM, Cbz-RR-AMC, 25° C.): No inhibition | inhibition of papain activity (Papain; concentration not given): do not inhibit | κassoc = κobs/[I], Peptidylglutamyl-peptide hydrolyzing activity (Cbz-LLE-βNA) ([2]; compound 100 μM, 25° C.): 4.2 ± 0.6 s^−1M^−1 | PGPH activity inhibited more slowly than chymotrypsin-like activity [2, 4]: 50 fold | reversibility of inhibition of PGPH activity [2, 5]: reversibly; also recorded: return of the catalytic activity | Effect of lactacystin (100 μM) on Trypsin (Trypsin; 100 μM, Cbz-GGR-βNA, 25° C.): No inhibition | inhibition of trypsin activity (Trypsin; concentration not given): do not inhibit | κassoc = κobs/[I], Chymotrypsin-like activity (Suc-LLVY-AMC) ([3]; compound 10 μM): 194 ± 15 s^−1M^−1 | kinact/KI ([3]; read-out: kassoc, apparent second-order rate constant for association, chymotrypsin-like activity): 194 ± 15 M⁻¹ s⁻¹ | reversibility of inhibition of chymotrypsin-like activity [3, 5]: irreversibly; also recorded: still completely inhibited | Effect of lactacystin (100 μM) on Calpain II (Calpain II; 100 μM, Suc-LLVY-AMC, 25° C.): No inhibition | inhibition of calpain II activity (Calpain II; concentration not given): do not inhibit

CC(=O)NC(CSC(=O)C1(C(O)C(C)C)NC(=O)C(C)C1O)C(=O)O [(6R,7S)Lactacystin (6-epi,7-epi), (6R,7S)-lactacystin]
κassoc = κobs/[I], Chymotrypsin-like activity (Suc-LLVY-AMC) ([3]; compound 12.5 μM): No inhibition

6-deoxylactacystin
κassoc = κobs/[I], Chymotrypsin-like activity (Suc-LLVY-AMC) ([3]; compound 12.5 μM): No inhibition
